Here are results for 2 compounds from patent publication US20140179624A1, “CYTOPROTECTIVE DERIVATIVES OF AVICIN D AND METHODS OF MAKING AND USING THEREOF” (Research Development Foundation, priority 2012, published 2014).

In series [1] the test system is cell cytotoxicity. The conditions noted are these: screen of Acacia victoriae compounds; U.S. Pat. No. 6,444,233; cited from earlier work.
Series [2] deals with 3T3-L1 cells. The series is described as follows: Adipogenesis in 3T3-L1 cells. The class given is cell-based.
In series [3] the test system is NF-κB. The series is described as follows: TNF-induced p(IL6-κB)350hu.IL6P-Luc luciferase reporter in HEK 293T cells with and without GR (FIG. 3). The format is cell-based. From the text: FIG. 3 is graph showing the expression of glucocorticoid receptor (GR) in HEK293T cells with and without GR.
However, TNF-induced activation of p(IL6-κB)350hu.IL6P-Luc was inhibited by both avicin D and Dex in HEK 293T cells transfected with GR (FIG. 3). […] This observation supports the notion that avicins are not able to induce GR transactivation.
A general note: A reporter such as luciferase makes a cellular process visible.

The subject of series [4] is NF-κB. The settings on record: redox-dependant manner; cited from earlier work.
Series [5] concerns NF-κB. Nature of the series: Inhibition of NF-κB activation (FIG. 2A). The class given is cell-based. The conditions noted are these: compared with dexamethasone.
Series [6] concerns NF-E2-related factor 2 (Nrf2). The conditions noted are these: redox-dependant manner; cited from earlier work.
The test system of series [7] is human preadipocytes. The series is described as follows: Differentiation of human preadipocytes to mature adipocytes. The format is cell-based.
Series [8] relates to chemotaxis. The series is described as follows: Inhibition of chemotaxis. The format is cell-based. The conditions noted are these: preliminary data. From the text: The compositions described herein contain an effective amount of the one or more avicin derivatives. The amount to be administered can be readily determined by the attending physician based on a variety of factors including, but not limited to, age of the patient, weight of the patient, disease or disorder to be treated, presence of a pre-existing condition, and dosage form to be administered (e.g., immediate release versus modified release dosage form). Typically, the effective amount is from about 0.1 mg/kg/day to about 100 mg/kg/day, more preferably from 0.1 mg/kg/day to 50 mg/kg/day, more preferably from 0.1 mg/kg/day to 25 mg/kg/day, and most preferably from 0.1 mg/kg/day to 10 mg/kg/day. Dosages greater or less than this may be administered depending on the diseases or disorder to be treated.

Series [9] addresses T1, glucocorticoid receptor (GR) (Homo sapiens, UniProt P04150).
T1 sequence (P04150 1-777): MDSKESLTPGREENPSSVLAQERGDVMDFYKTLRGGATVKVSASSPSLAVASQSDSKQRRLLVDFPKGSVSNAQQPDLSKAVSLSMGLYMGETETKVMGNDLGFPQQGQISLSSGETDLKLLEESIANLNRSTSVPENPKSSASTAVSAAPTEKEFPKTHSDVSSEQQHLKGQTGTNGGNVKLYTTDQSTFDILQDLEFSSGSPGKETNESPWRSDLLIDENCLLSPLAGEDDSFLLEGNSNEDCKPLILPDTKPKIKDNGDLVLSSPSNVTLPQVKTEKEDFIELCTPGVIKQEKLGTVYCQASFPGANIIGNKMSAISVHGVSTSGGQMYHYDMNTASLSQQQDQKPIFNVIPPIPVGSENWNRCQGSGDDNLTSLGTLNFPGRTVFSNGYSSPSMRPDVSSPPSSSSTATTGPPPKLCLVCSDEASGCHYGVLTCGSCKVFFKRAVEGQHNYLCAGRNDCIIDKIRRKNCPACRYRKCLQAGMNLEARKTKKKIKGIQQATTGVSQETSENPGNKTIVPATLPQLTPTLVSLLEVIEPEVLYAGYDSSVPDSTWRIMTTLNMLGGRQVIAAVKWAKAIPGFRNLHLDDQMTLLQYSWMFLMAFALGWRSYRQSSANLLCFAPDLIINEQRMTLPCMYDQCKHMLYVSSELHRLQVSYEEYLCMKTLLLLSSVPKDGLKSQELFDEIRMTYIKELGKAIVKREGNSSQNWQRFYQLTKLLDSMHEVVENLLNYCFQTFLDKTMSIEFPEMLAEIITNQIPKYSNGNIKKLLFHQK
The series is described as follows: Phosphorylation of GR Ser-211 (FIG. 4). The format is cell-based. The settings on record: even after 16 hours.

For series [10], the system named is IL-6. Nature of the series: Expression of constitutive and TNF-induced IL-6 (FIG. 2B). The format is cell-based.

Consider `C=C[C@](C)(O)CC/C=C(\C)C(=O)O[C@H]1[C@H](O)[C@@H](O)[C@H](O[C@@](C)(C=C)CC/C=C(\CO)C(=O)O[C@H]2C[C@]3(C(=O)O[C@@H]4O[C@H](CO)[C@@H](O)[C@H](O)[C@H]4O[C@@H]4O[C@@H](C)[C@H](O[C@@H]5O[C@@H](CO)[C@H](O)[C@H]5O)[C@@H](O[C@@H]5O[C@H](CO)[C@@H](O)[C@H](O)[C@H]5O)[C@H]4O)[C@H](O)C[C@]4(C)C(=CC[C@@H]5[C@@]6(C)CC[C@H](O[C@@H]7O[C@H](CO[C@@H]8O[C@H](C)[C@H](O)[C@H](O)[C@H]8O[C@@H]8OC[C@@H](O)[C@H](O)[C@H]8O)[C@@H](O)[C@H](O)[C@H]7NC(C)=O)C(C)(C)[C@@H]6CC[C@]54C)[C@@H]3CC2(C)C)O[C@@H]1C` [avicin G], for which, in series [1], the “induction of cell cytotoxicity” value is given as “significant activity”.

Take `C=C[C@](C)(O)CC/C=C(\CO)C(=O)O[C@H]1[C@H](O)[C@@H](O)[C@H](O[C@@](C)(C=C)CC/C=C(\CO)C(=O)O[C@H]2C[C@]3(C(=O)O[C@@H]4O[C@H](CO)[C@@H](O)[C@H](O)[C@H]4O[C@@H]4O[C@@H](C)[C@H](O[C@@H]5O[C@@H](CO)[C@H](O)[C@H]5O)[C@@H](O[C@@H]5O[C@H](CO)[C@@H](O)[C@H](O)[C@H]5O)[C@H]4O)[C@H](O)C[C@]4(C)C(=CC[C@@H]5[C@@]6(C)CC[C@H](O[C@@H]7O[C@H](CO[C@@H]8O[C@H](C)[C@H](O)[C@H](O)[C@H]8O[C@@H]8OC[C@@H](O)[C@H](O)[C@H]8O)[C@@H](O)[C@H](O)[C@H]7NC(C)=O)C(C)(C)[C@@H]6CC[C@]54C)[C@@H]3CC2(C)C)O[C@@H]1C` [Avicin D]: in [2], the “PKA-mediated CREB activity” value is listed as “inhibited PKA-mediated CREB activity”; the “adipolysis and adipocyte apoptosis” value is recorded as “did not affect”; the preadipocyte differentiation entry is recorded as “suppressed preadipocyte differentiation”. In series [2] (3T3-L1 cells), the adipogenesis entry was “inhibit adipogenesis” and the intracellular triglyceride level entry was “reduce intracellular triglyceride level in a dose-dependent manner”. Also, the “expression and secretion of adiponectin” value in series [2] (in adipocytes) is “increased the expression and secretion of adiponectin”. Further, in series [1], the “induction of cell cytotoxicity” value was “significant activity”. Also, in [3] (HEK 293T cells transfected with GR), the “TNF-induced activation of p(IL6-κB)350hu.IL6P-Luc” value is on record as “inhibited”. For the same compound, the luciferase activity entry in [3] (wild type HEK 293T cells (without GR)) is recorded as “neither avicin D nor dexamethasone had an effect”. Also, the NF-κB inhibition entry in [4] is recorded as “inhibit NF-κB”. Also, the “activation of NF-κB” value in [5] was “inhibits activation of NF-κB in a similar manner to dexamethasone”. Further, the Nrf2 activation result in series [6] is listed as “activate NF-E2-related factor 2 (Nrf2)”. Besides, in [7], the “differentiation of human preadipocytes to mature adipocytes” value is on record as “inhibited the differentiation of human preadipocytes to mature adipocytes” and the intracellular triglyceride levels entry is reported as “reduced intracellular triglyceride levels”. In addition, the inhibition of chemotaxis entry in series [8] was “effective at inhibiting chemotaxis at picomolar and nanomolar concentrations”. Besides, the “phosphorylation of Ser-211” value in series [9] was “does not enhance phosphorylation of Ser-211”. For the same compound, in series [10], the “expression of constitutive and TNF-induced IL-6” value is “suppresses the expression of both constituitive and TNF-induced IL-6”.
